Patent US8445502B2, “Pharmaceutical formulations comprising salts of a protein kinase inhibitor and methods of using same” (Astex Pharmaceuticals, Inc., priority 2007, dated 2013)
Like-named read-outs stand apart in the source and are kept apart here.

Details: rat, in vivo
Procedure: Twenty-four rats were placed into four groups each consisting of three animals per sex. The animals were weighed the day before dosing, as well as just prior to dosing.
After intravenous infusion of MP470.HCl at 5 mg/kg, average MP470 peak plasma concentrations of 454.3 ng/mL for males and 370.7 ng/mL for females were attained at 0.083 hours (5 minutes), the first sampling point postdose. After oral administration of non-micronized MP470.HCl, peak plasma concentrations of MP470 were attained at 0.5-12 hours for Group 2 (25 mg/kg) and 4-12 hours for Group 3 (100 mg/kg, suspension). The extent of systemic exposure of rats to MP470, characterized by AUCO-∞, was approximately 3.8-fold and 2.9-fold higher in females than in males for Groups 2 and 3, respectively. Average AUCO-∞ values were higher at 100 mg/kg than at 25 mg/kg and the increases in AUCO-∞ were greater than dose-proportional.
After oral administration of micronized MP470.HCl (Group 4), peak plasma concentrations of MP470 were attained at 4-12 hours. The extent of systemic exposure of rats to MP470, characterized by AUCO-∞, was approximately 3.4-fold higher in females than in males for Group 4. The extent of exposure of rats to MP470, characterized by AUCO-∞, was 1.7-fold (males) and 1.4-fold (females) higher for non-micronized MP470 HCl (Group 3) than for micronized MP470 HCl (Group 4).

Cl.S=C(NCc1ccc2c(c1)OCO2)N1CCN(c2ncnc3c2oc2ccccc23)CC1 [MP470.HCl, 4-[1]benzofuro[3,2-d]pyrimidin-4-yl-N-(1,3-benzodioxol-5-ylmethyl)piperazine-1-carbothioamide hydrochloride]
Bioavailability (%) (female): 100.21%
AUC INF (female, iv, 5 mg/kg): 2530.9 ng·h/mL
t1/2 (female, iv, 5 mg/kg): 2.6 to 2.9 h
AUC INF (female, po, 25 mg/kg): 12681.6 ng·h/mL
t1/2 (female, po, 25 mg/kg): 4.0 to 17.4 h
Bioavailability (%) (male): 43.40%
AUC INF (male, iv, 5 mg/kg): 1546.3 ng·h/mL
t1/2 (male, iv, 5 mg/kg): 3.1 to 4.4 h
AUC INF (male, po, 25 mg/kg): 3355.1 ng·h/mL
t1/2 (male, po, 25 mg/kg): 2.8 to 4.2 h
